Experimental data as given in US9493466B2, “Treatment of cancer with TOR kinase inhibitors” (Signal Pharmaceuticals, LLC, priority 2011, dated 2016).

What was measured:
HCT-116 tumors = assay: HCT-116 human colorectal cancer xenograft model; assay type: in vivo, SCID mice
Procedure: HCT-116 Human Colorectal Cancer Xenograft Model. The HCT-116 cell line was obtained from American Tissue Culture Collection (ATCC) (Gaithersberg, Md.) and grown in growth medium containing McCoy's 5A medium with 2 mM L-glutamine adjusted to contain 90% and 10% of fetal bovine serum. The cells were detached from tissue culture flasks using trypsin-EDTA. After centrifugation, the cell pellets were suspended in phosphate buffered saline (PBS) and counted using a hemocytometer. Matrigel was added to the cell suspension to adjust the final volume to 2×10^6 cells/0.1 mL of 1:1 mixture of Matrigel: PBS.
Female 6-8 weeks old CB17 SCID mice were obtained from Charles River Laboratories at a body weight of 17-20 g. Mice were anesthetized with inhaled isoflurane and then inoculated with HCT-116 tumor cells subcutaneously on the right hind leg with 0.1 mL of a single cell suspension using a sterile 1 mL syringe fitted with a 26 gauge needle. Following inoculation, the mice were returned to microisolator cages. The tumors were allowed to grow to about 100 mm^3 prior to randomization. The typical number of days required for tumors to reach 100 mm^3 was 7 to 8 days. The tumor of each animal was measured and animals with tumors ranging between 100 and 150 mm^3 were included in the study. The animals were distributed randomly into various cages and the cages were randomly assigned to vehicle, positive control, or test article groups. All of the mice were tagged with metal ear tags on the right ear. A typical group consisted of 8 to 10 animals.
Compound 1 was formulated in 0.5% CMC and 0.25% Tween 80 in water (as a suspension). The formulations were homogenized using a Teflon pestle and mortar (Potter-Elvehjem tissue grinder). Between the doses, the formulated compound was stored under constant stirring using a magnetic stirrer at 4° C. in the dark. The test article and vehicle were administered by oral gavage. The positive control (rapamycin) was prepared as solution in 2% ethanol, 45% polyethyleneglycol 400, and 53% saline and administered by IP injection. Vehicle and the test article were dosed in a volume of 5 mL/kg. The positive control rapamycin was dosed in a volume of 10 mL/kg. Sterile syringes and gavage needles were used for compound administration. All the procedures including injections were done in biosafety cabinets sprayed with ethanol prior to use.
Groups of female SCID mice bearing HCT-116 tumors (n=9-10/group) were dosed orally with vehicle or Compound 1 (1 mg/kg to 50 mg/kg) twice daily (BID), once daily (QD), every second day (Q2D), every third day (Q3D) or every 5th day (Q5D) throughout the study starting when the tumor volumes reached approximately 100 mm^3. The BID dose groups were dosed with a 10 h separation between the morning and evening doses. In the positive control group, rapamycin (n=6/group) was administered via the intraperitoneal (IP) route Q3D. At the end of each study, plasma and/or tumor samples were collected.
Tumor volumes were determined prior to the initiation of treatment and were considered as the starting volumes. Thereafter, tumors were measured twice a week for the duration of the study. The long and short axes of each tumor were measured using a digital caliper in millimeters. The tumor volumes were calculated using the formula: width^2×length/2 (using long [L] and short [W] axes of tumors). The tumor volumes were expressed in cubic millimeters (mm^3). Tumor volume data are expressed as mean±SE. The difference in tumor volume between vehicle and treatment group was expressed in percent volume reduction=100−tumor volume of treated/tumor volume of control×100. Statistical analysis was done using Graphpad Prism. Comparison between multiple groups was done using one-way ANOVA with Newman-Keuls post-test with a 95% significance level.
Initial body weights were recorded prior to the initiation of treatment using a digital scale. […]

U87MG tumors = assay: U87MG human glioblastoma xenograft model (Compound 2); assay type: in vivo, SCID mice
Procedure: U87MG Human Glioblastoma Xenograft Model (Compound 2). Efficacy Studies: Groups of female SCID mice bearing U87MG tumors (n=8-10/group) were dosed orally with vehicle or Compound 2 (doses ranged between 0.05 and 1 mg/kg) throughout the study, starting when tumor volumes reached approximately 170-180 mm^3. The twice daily (BID) dose groups were dosed with a 10-hour separation between morning and evening doses. In the positive control group, rapamycin was administered every third day (Q3D) via intraperitoneal (IP) route. At the end of each study, plasma and/or tumor samples were collected.
Cell Line and Culture. U87MG cell line was obtained from American Tissue Culture Collection (ATCC) (Gaithersburg, Md.) and grown in growth medium containing MEM, 2 mM L-glutamine, 0.1 mM non-essential amino acids, and 1 mM sodium pyruvate plus 10% FBS. The cells were detached from tissue culture flasks using trypsin-EDTA. After centrifugation, the cell pellets were suspended in PBS and cells counted using a hemocytometer. The final volume was adjusted to 5×10^6 cells/0.1 mL of PBS.
Tumor Cell Inoculation. […]
Randomization of Animals. […] The tumor of each animal was measured and animals with tumors ranging between 170 and 180 mm^3 were included in the study. […]
Tumor Measurements. Tumor volumes were determined prior to the initiation of treatment and were considered as the starting volumes. Thereafter, tumors were measured twice a week for the duration of the study. The long and short axes of each tumor were measured using a digital caliper in millimeters. Tumor volumes were calculated using the formula: width^2×length/2. […]
Body Weight Measurements. Initial body weights were recorded prior to the initiation of treatment using a digital scale. The percentage body weight change during the course of the study was calculated using initial body weight measurements. Body weights of each animal were measured twice a week at the same time as the tumor measurements. Body weights were measured more frequently if significant decreases were noted during the course of the study.

Compound | tumor growth inhibition (HCT-116 tumors; 5 mg/kg (BID), 10 mg/kg (BID), 25 mg/kg (QD and Q2D), Day 25) | Body weight loss (HCT-116 tumors; 10 mg/kg BID) [%] | tumor volume reduction (HCT-116 tumors; 10 mg/kg BID) | Body weight loss (HCT-116 tumors; 25 mg/kg QD) [%] | minimum dose required to obtain >65% tumor volume reduction compared to vehicle (HCT-116 tumors; QD oral) [mg/kg] | change in body weight (HCT-116 tumors; any other group) | average tumor volumes compared with vehicle (U87MG tumors; 0.05, 0.1 and 0.3 mg/kg BID oral, Day 35) | average tumor volumes compared with vehicle (U87MG tumors; 0.1, 0.5 and 1 mg/kg QD oral, Day 34) | lowest efficacious dose (approximately 65% tumor volume inhibition) (U87MG tumors; QD oral, 3 weeks) [mg/kg]
CO[C@H]1CC[C@H](N2C(=O)CNc3ncc(-c4ccc(C(C)(C)O)nc4)nc32)CC1 [Compound 1, 7-(6-(2-hydroxypropan-2-yl)pyridin-3-yl)-1-((1r,4r)-4-methoxycyclohexyl)-3,4-dihydropyrazino-[2,3-b]pyrazin-2(1H)-one] | Significant (p<0.001) tumor growth inhibition | 16.9 | Approximately 50% | 14 | 25 | No significant change | – | – | –
CCN1C(=O)CNc2ncc(-c3ccc(-c4nc[nH]n4)nc3C)nc21 [Compound 2, 1-ethyl-7-(2-methyl-6-(1H-1,2,4-triazol-3-yl)pyridin-3-yl)-3,4-dihydropyrazino[2,3-b]pyrazin-2(1H)-one] | – | – | – | – | – | – | significantly smaller (p<0.001) | significantly smaller (p<0.001) | 0.5
